Measurements reported in patent publication US9029409B2, “Isoxazolines as therapeutic agents” (AbbVie Inc., priority 2011, dated 2015).

These compounds were tested against T1, recombinant human MMP13 catalytic domain (CD) (Homo sapiens, UniProt P45452) (assay: MMP-13 catalytic domain FRET enzyme assay). Details: recombinant human MMP-13 catalytic domain.
T1 construct: catalytic domain (CD) construct encompassing residues 20-274 (SWISS-PROT P45452); made in house
Format: biochemical
Method: A recombinant human MMP13 catalytic domain (CD) construct encompassing residues 20-274 (SWISS-PROT P45452) was generated by synthetic gene methods and bacterial expression. MMP-13 activity assays were performed using the recombinant human MMP-13 CD at a 0.4 nM concentration and the fluorogenic substrate (QXL-520)-K-P-L-A˜Nva-Dap(5-FAM)-A-R-NH2 (Anaspec cat #60554-01, San Jose, Calif.) at a 0.25 μM concentration in assay buffer containing […], pH 7.5, 10 mM CaCl2, 150 mM NaCl, 0.05% Brij 35. The assay is based on the cleavage of this substrate by MMP-13, resulting in decrease of FRET between the donor-acceptor pair and subsequent fluorescence enhancement. The assays were carried out in 384-well plates (Greiner cat #781076, Germany) for 60 min at RT. After the incubation period, the reaction was quenched by the addition of 5 μL of 500 mM EDTA (100 mM final concentration) (Rankem, Cat #E0120, India) mixed well and the rate of substrate hydrolysis was determined by monitoring change in fluorescence at excitation and emission wavelengths of 485 nm and 535 nm respectively. Fluorescence was measured on a Victor V5 plate reader (Perkin Elmer, Turku, Finland). The test compounds used for assessing the potency of inhibition of MMP-13 activity were dissolved in DMSO (final DMSO concentration in the assay was 5%). Selected compounds were also screened against full length MMP13 (R&D Systems (Cat. No. 511-MM-010), Minneapolis, Minn.) at 2 nM concentration using the same fluorogenic substrate mentioned above. The enzyme was activated using 1 m Mp-aminophenylmercuric acetate—APMA (Cat #A-9563, Sigma, Germany).
Data analysis: The percent inhibition of the enzyme activity in presence of test compounds were calculated using the equation, percent (%) Inhibition=100−[(Fi/Fc)*100] where Fc is the fluorescence corresponding to initial enzyme activity and Fi is the fluorescence corresponding to the enzyme activity in presence of inhibitor. The IC50 values were calculated by fitting the dose-response data to a sigmoidal curve fitting equation using Graph Pad prism software (Version 5, La Jolla, Calif.).
MMP13 Catalytic Domain (CD) Potency of the Described Examples Determined Using Time Resolved Fluorescence Resonance Energy Transfer (FRET) Enzyme Assays: […]

IC50 [nM] | Compound
10 to 100 | Cc1nc(C(=O)NCc2ccc(F)c(Cl)c2)cc(C2=NOC(c3ccc(C#N)nn3)C2)n1 (stereo not shown)
10 to 100 | COc1cc(CNC(=O)c2cc(C3=NOC(C4CCN(C(=O)CNC(C)=O)CC4)C3)nc(C)n2)ccc1F (stereo not shown) [drawing 879]
10 to 100 | Cc1nc(C(=O)NCc2ccc(F)c(C)c2)cc(C2=NOC(c3ccccn3)C2)n1 (stereo not shown)
< 10 | COc1cc(CNC(=O)c2cc(C3=NOC(C4CCN(S(=O)(=O)c5nccn5C)CC4)C3)nc(C)n2)ccc1F (stereo not shown)
10 to 100 | CC(=O)N[C@H]1CC[C@H](C2CC(c3cc(C(=O)NCc4ccncc4)nc(C)n3)=NO2)CC1 (stereo partly shown)
10 to 100 | COc1cccc(CNC(=O)c2cc(C3=NOC(C4CCN(C(C)=O)CC4)C3)nc(C)n2)c1 (stereo not shown)
< 10 | Cc1nc(C(=O)NCc2ccc(F)c(C)c2)cc(C2=NOC(C3CCN(S(C)(=O)=O)CC3)C2)n1 (stereo not shown)
< 10 | CC(=O)NC[C@@H]1CO[C@@H]([C@@H]2CC(c3cc(C(=O)NCc4ccc(F)c(Cl)c4)nc(C)n3)=NO2)CO1
< 10 | COc1cc(CNC(=O)c2cc(C3=NOC([C@H]4CC[C@H](NC(=O)[C@H](C)O)CC4)C3)nc(C)n2)ccc1F (stereo partly shown)
10 to 100 | Cc1nc(C(=O)NCc2ccncc2)cc(C2=NO[C@H]([C@H]3CO[C@H](CO)CO3)C2)n1
100 to 1000 | COc1cc(CNC(=O)c2cc(C3=NO[C@@H]([C@@H]4CO[C@@H](CO)CO4)C3)nc(C)n2)ccc1F
< 10 | CNC(=O)[C@@H]1CO[C@@H]([C@@H]2CC(c3cc(C(=O)NCc4ccc(F)c(OC)c4)nc(C)n3)=NO2)CO1
> 1000 | COc1cc(CNC(=O)c2cc(C3=NOC(c4ccc(N5CCCC5)nn4)C3)nc(C)n2)ccc1F (stereo not shown)
10 to 100 | Cc1nc(C(=O)NCc2ccc(F)c(Cl)c2)cc(C2=NOC(C3CCN(C(=O)CO)CC3)C2)n1 (stereo not shown)
10 to 100 | COc1cc(CNC(=O)c2cc(C3=NOC(c4ccn(C5CC5)c(=O)c4)C3)nc(C)n2)ccc1F (stereo not shown)
> 1000 | Cc1nc(C(=O)NCc2ccc3c(c2)OCCO3)cc(C2=NO[C@@H]([C@H]3CO[C@H](CO)CO3)C2)n1
10 to 100 | COc1cc(CNC(=O)c2cc(C3=NOC(c4ccnc(C(N)=O)c4)C3)nc(C)n2)ccc1F (stereo not shown)
< 10 | COc1cc(CNC(=O)c2cc(C3=NOC([C@H]4CC[C@H](NC(=O)NCCO)CC4)C3)nc(C)n2)ccc1F (stereo partly shown)
> 1000 | COc1ccc(CNC(=O)c2cc(C3=NOC(c4cnccn4)C3)ccn2)cc1 (stereo not shown)
10 to 100 | Cc1nc(C(=O)NCc2ccc(F)c(F)c2)cc(C2=NOC(c3ccc(C#N)nn3)C2)n1 (stereo not shown)
10 to 100 | Cc1nc(C(=O)NCc2ccc(F)c(F)c2)cc(C2=NOC(C3CCN(S(C)(=O)=O)CC3)C2)n1 (stereo not shown)
< 10 | CNC(=O)Cn1cc(C2CC(c3cc(C(=O)NCc4ccc(F)c(OC)c4)nc(C)n3)=NO2)cc(Cl)c1=O (stereo not shown)
< 10 | COc1cc(CNC(=O)c2cc(C3=NOC(c4ccc(C#N)cn4)C3)nc(C)n2)ccc1F (stereo not shown)

IC50 [nM] | Compound
< 10 | COc1cc(CNC(=O)c2cc(C3=NO[C@H](c4ccn(C)c(=O)c4)C3)nc(C)n2)ccc1F
< 10 | CC(=O)N[C@H]1CC[C@H]([C@@H]2CC(c3cc(C(=O)NCc4ccc5c(c4)NC(=O)CO5)nc(C)n3)=NO2)CC1
< 10 | COc1cc(CNC(=O)c2cc(C3=NOC(c4cc(Cl)c(=O)n(C5CC5)c4)C3)nc(C)n2)ccc1F (stereo not shown)
< 10 | COc1cc(CNC(=O)c2cc(C3=NOC(C4CCCCC4)C3)nc(C)n2)ccc1F (stereo not shown)
10 to 100 | CC(=O)N[C@H]1CC[C@H](C2CC(c3cc(C(=O)NCc4ccc(F)cc4)nc(C)n3)=NO2)CC1 (stereo partly shown)
10 to 100 | Cc1nc(C(=O)NCc2ccc(F)c(F)c2)cc(C2=NOC(C3CCN(C(=O)CO)CC3)C2)n1 (stereo not shown)
10 to 100 | Cc1nc(C(=O)NCc2ccc(F)c(F)c2)cc(C2=NOC(c3ccccn3)C2)n1 (stereo not shown)
10 to 100 | COc1cc(CNC(=O)c2cc(C3=NOC(c4ccc(N5CCC(CO)CC5)cc4)C3)nc(C)n2)ccc1F (stereo not shown)
< 10 | COc1cc(CNC(=O)c2cc(C3=NO[C@H]([C@H]4CO[C@H](CNC(C)=O)CO4)C3)nc(C)n2)ccc1F
< 10 | Cc1nc(C(=O)NCc2ccc(F)c(C)c2)cc(C2=NOC(c3ccc(=O)n(C)c3)C2)n1 (stereo not shown) [drawing 990]
10 to 100 | Cc1nc(C(=O)NCc2ccc3c(c2)NC(=O)CC3)cc(C2=NO[C@H]([C@H]3CO[C@H](CO)CO3)C2)n1
10 to 100 | COc1cc(CNC(=O)c2cc(C3=NOC(c4ccn(CC(=O)N(C)OC)c(=O)c4)C3)nc(C)n2)ccc1F (stereo not shown)
< 10 | COc1cc(CNC(=O)c2cc(C3=NOC([C@H]4CC[C@H](NS(N)(=O)=O)CC4)C3)nc(C)n2)ccc1F (stereo partly shown)
10 to 100 | COc1cc(CNC(=O)c2cc(C3=NOC(c4ccc(=O)n(CC(=O)N(C)C)n4)C3)nc(C)n2)ccc1F (stereo not shown)
> 1000 | COc1ccc(CNC(=O)c2cc(C3=NOC(c4nn[nH]n4)C3)nc(C)n2)cc1 (stereo not shown)
10 to 100 | COc1cccc(CNC(=O)c2cc(C3=NO[C@H]([C@H]4CO[C@H](CO)CO4)C3)nc(C)n2)c1
10 to 100 | Cc1nc(C(=O)NCc2ccc(F)cc2)cc(C2=NO[C@H]([C@H]3CO[C@H](CO)CO3)C2)n1
100 to 1000 | COc1cc(CNC(=O)c2cc(C3=NO[C@@H]([C@H]4CO[C@H](CO)CO4)C3)nc(C)n2)ccc1F [drawing 837]
> 1000 | COc1cc(CNC(=O)c2cc(C3=NOC(C(N)=O)C3)nc(C)n2)ccc1F (stereo not shown)
10 to 100 | COc1cc(CNC(=O)c2cc(C3=NOC(c4ccc(=O)n(C)c4)C3)nc(C)n2)ccc1F (stereo not shown)
< 10 | Cc1nc(C(=O)NCc2ccc3c(c2)NC(=O)CO3)cc(C2=NO[C@@H]([C@H]3CC[C@H](NC(=O)[C@H](C)O)CC3)C2)n1
10 to 100 | Cc1nc(C(=O)NCc2ccc(F)c(F)c2)cc(C2=NOC(c3ccc(=O)n(C)c3)C2)n1 (stereo not shown)
< 10 | COc1cc(CNC(=O)c2cc(C3=NO[C@H]([C@H]4CO[C@H](CNC(=O)CC#N)CO4)C3)nc(C)n2)ccc1F

IC50 [nM] | Compound
10 to 100 | Cc1nc(C(=O)NCc2ccc3c(c2)OCCO3)cc(C2=NO[C@H]([C@H]3CO[C@H](CO)CO3)C2)n1
< 10 | COc1cc(CNC(=O)c2cc(C3=NOC(c4ccc(=O)n(C(C)C)c4)C3)nc(C)n2)ccc1F (stereo not shown)
10 to 100 | COc1cc(CNC(=O)c2cc(C3=NOC(c4ccc(S(C)(=O)=O)nn4)C3)nc(C)n2)ccc1F (stereo not shown)
10 to 100 | CNC(=O)NCC(=O)N1CCC(C2CC(c3cc(C(=O)NCc4ccc(F)c(OC)c4)nc(C)n3)=NO2)CC1 (stereo not shown)
10 to 100 | COc1cc(CNC(=O)c2cc(C3=NO[C@H]([C@@H]4CO[C@@H](C(=O)O)CO4)C3)nc(C)n2)ccc1F
< 10 | COc1cc(CNC(=O)c2cc(C3=NOC(c4cccnc4)C3)nc(C)n2)ccc1F (stereo not shown)
> 1000 | COc1cc(CNC(=O)c2cc(C3=NOC(CN4CCC(CO)C4)C3)nc(C)n2)ccc1F (stereo not shown)
10 to 100 | COc1ccc(CNC(=O)c2cc(C3=NOC(c4ccc(OCCO)cc4)C3)nc(C)n2)cc1 (stereo not shown)
10 to 100 | CNC(=O)Cn1ccc(C2CC(c3cc(C(=O)NCc4ccc(F)c(OC)c4)nc(C)n3)=NO2)cc1=O (stereo not shown)
100 to 1000 | Cc1nc(C(=O)NCc2ccc(F)c(Cl)c2)cc(C2=NO[C@@H]([C@H]3CO[C@H](CO)CO3)C2)n1 [drawing 902]
< 10 | COc1cc(CNC(=O)c2cc(C3=NOC(c4ccsc4)C3)nc(C)n2)ccc1F (stereo not shown)
< 10 | COc1cc(CNC(=O)c2cc(C3=NOC(c4ccc(-c5nc(C)no5)nc4)C3)nc(C)n2)ccc1F (stereo not shown)
10 to 100 | COc1cc(CNC(=O)c2cc(C3=NO[C@H]([C@H]4CO[C@H](C(C)(C)O)CO4)C3)nc(C)n2)ccc1F
100 to 1000 | Cc1nc(C(=O)NCc2ccnc3ccccc23)cc(C2=NO[C@@H]([C@H]3CO[C@H](CO)CO3)C2)n1
< 10 | COc1cc(CNC(=O)c2cc(C3=NO[C@H]([C@H]4CC[C@H](NC(=O)[C@H](C)O)CC4)C3)nc(C)n2)ccc1F
100 to 1000 | COc1cc(CNC(=O)c2cc(C3=NO[C@@H](c4ccn(C)c(=O)c4)C3)nc(C)n2)ccc1F
10 to 100 | COc1cccc(CNC(=O)c2cc(C3=NO[C@H]([C@@H]4CO[C@@H](CO)CO4)C3)nc(C)n2)c1
> 1000 | COc1cc(CNC(=O)c2cc(C3=NOC(CN4CCOCC4)C3)nc(C)n2)ccc1F (stereo not shown)
< 10 | COc1cc(CNC(=O)c2cc(C3=NOC(C4CCN(S(=O)(=O)C(C)C)CC4)C3)nc(C)n2)ccc1F (stereo not shown)
< 10 | COc1cc(CNC(=O)c2cc(C3=NOC(C4CCOCC4)C3)nc(C)n2)ccc1F (stereo not shown)
< 10 | COc1cc(CNC(=O)c2cc(C3=NO[C@H]([C@H]4CO[C@H](CO)CO4)C3)nc(C)n2)ccc1F
